The results in this text go back to patent US10435400B2, “2,4-disubstituted phenylene-1,5-diamine derivatives and applications thereof, and pharmaceutical compositions and pharmaceutically acceptable compositions prepared therefrom” (SHANGHAI HAIYAN PHARMACEUTICAL TECHNOLOGY CO., LTD., priority 2014, dated 2019).

The test system of one assay is NIH3T3 cells. In words: Cytotoxicity by MTT method, NIH3T3 cells.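 Further: cells grown in 96-well plates with compound for 72 h, then given MTT for a further 4 h at 37 °C under 5% CO2.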 It is filed as cell-based. The settings on record: read-out: NIH3T3 cells MTT assay (IC50/nM). A general note: Tetrazolium assays rely on reduction of a dye to a coloured formazan, in cell work by metabolically active cells.
Assay [1] deals with H1975 cells. In words: Cytostatic activity by MTT method, H1975 cells. It counts as cell-based. As to conditions: read-out: H1975 cells (IC50/nM).
Protocol: MTT assay used the method well known to those skilled in the art, and the reagents used in the method can be commercially obtained. […] After rinsed for one time, 1.5 ml trypsin/EDTA was added to digest the adherent cells until the cells detached, and then 3.5 ml of medium was added to terminate the trypsinization. The digested cell suspension was transferred to a 15 ml falcon tube, and spun at 1300 rpm for 3 min, the supernatant was discarded, and cells were suspended in fresh medium. […] The plates were spun at 2000 rpm for 5 min.
A further assay addresses EGFR WT kinase (Homo sapiens (Human), UniProt P00533). In words: Wild type EGFR kinase inhibition test (z-lyte). It counts as biochemical. As to conditions: 10 μM ATP.
The test system of a further assay is A431 cells. In words: ELISA cell activity, EGF-stimulated A431 cells.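 Further: Serum-starved A431 cells pretreated with compound for 1 h, then stimulated with EGF for 45 min, lysates read by ELISA (OD450 minus OD570), EGF-only wells as control.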 It counts as cell-based. As to conditions: ELISA, compound 1 h then EGF 45 minutes, read-out: A431 cells (IC50/nM).
Assay [2] relates to H1975 cells. In words: ELISA screening EGFR T790M inhibitor for cell activity, H1975 cells. It is filed as cell-based. As to conditions: ELISA; for IC50: compound 1 h, read-out: H1975 cells (IC50/nM); for Selective inhibitory activities of target on cellular level [IC50 (A431 cells)/IC50 (H1975 cells)]: ratio of IC50 values. (In an ELISA, binding on a coated surface is turned into a signal by an enzyme label.)
Protocol: (§1) The reagents, preparation methods of the solution, as well as the procedures of cell treatments and preparation of lysate, and the test steps of ELISA in the following method were conducted according to the instructions of R&D DYC3570, R&D DYC1095E and R&D DYC1095BE.
(§2) Cell lysates: cell lysis buffer+10 μg/ml Aprotinin (Sigma), 10 μg/ml Leupeptin (Sigma). All reagents were prepared when using.
(2) The test compounds were diluted according to the method in MTT assay, and 10 μl of diluted compound or DMSO was added to the corresponding plate well, and incubated at 37° C. with 5% CO2 for 1 h. The final concentration of DMSO was 0.5%. Cell culture system merely treated with DMSO was used as cell control.
(3) 100 μl cell lysate was added after aspirating the medium, sealed and placed in a refrigerator at −80° C. overnight. Cell lysis buffer used as blank control.
The assay was operated according to the instructions of R&D DYC1095E or R&D DYC1095BE.
(§3) (5) 40 μl of cell lysis buffer and 60 μl of cell lysates were added, and incubated at 25° C. for 2 h under shaking;
(7) Detection antibody was diluted according to a predetermined ratio as stipulated in kit instructions by using IC diluent, and 100 μl of the diluted Detection Antibody was added to each well, and incubated at 25° C. for 1 h under shaking in darkness;
(9) reagent A and reagent B of TMB substrate (R & D DY999) were mixed with 1:1, and 100 μl of substrate was added to each well, and incubated at 25° C. for 20 minutes under shaking in darkness;
(11) The OD450 values and OD570 values of the cell control, blank control and compound treatment were measured respectively by using microplate reader (Thermo Multiskan K3), and the corresponding OD570 values were subtracted from OD450 values of the same wells to get the ODcell, ODblank and ODcompound treatment respectively.
2.3 Data Analysis Inhibition ratio (%)=100%×(ODcell−ODcompound treatment)(ODcell−ODblank)

[3] abbreviates: Mus musculus, NIH3T3, cytotoxicity, MTT, 72 h.

Where two headings read alike, the source gives them in different places.

EGFR WT kinase, sequence (P00533 25-1210): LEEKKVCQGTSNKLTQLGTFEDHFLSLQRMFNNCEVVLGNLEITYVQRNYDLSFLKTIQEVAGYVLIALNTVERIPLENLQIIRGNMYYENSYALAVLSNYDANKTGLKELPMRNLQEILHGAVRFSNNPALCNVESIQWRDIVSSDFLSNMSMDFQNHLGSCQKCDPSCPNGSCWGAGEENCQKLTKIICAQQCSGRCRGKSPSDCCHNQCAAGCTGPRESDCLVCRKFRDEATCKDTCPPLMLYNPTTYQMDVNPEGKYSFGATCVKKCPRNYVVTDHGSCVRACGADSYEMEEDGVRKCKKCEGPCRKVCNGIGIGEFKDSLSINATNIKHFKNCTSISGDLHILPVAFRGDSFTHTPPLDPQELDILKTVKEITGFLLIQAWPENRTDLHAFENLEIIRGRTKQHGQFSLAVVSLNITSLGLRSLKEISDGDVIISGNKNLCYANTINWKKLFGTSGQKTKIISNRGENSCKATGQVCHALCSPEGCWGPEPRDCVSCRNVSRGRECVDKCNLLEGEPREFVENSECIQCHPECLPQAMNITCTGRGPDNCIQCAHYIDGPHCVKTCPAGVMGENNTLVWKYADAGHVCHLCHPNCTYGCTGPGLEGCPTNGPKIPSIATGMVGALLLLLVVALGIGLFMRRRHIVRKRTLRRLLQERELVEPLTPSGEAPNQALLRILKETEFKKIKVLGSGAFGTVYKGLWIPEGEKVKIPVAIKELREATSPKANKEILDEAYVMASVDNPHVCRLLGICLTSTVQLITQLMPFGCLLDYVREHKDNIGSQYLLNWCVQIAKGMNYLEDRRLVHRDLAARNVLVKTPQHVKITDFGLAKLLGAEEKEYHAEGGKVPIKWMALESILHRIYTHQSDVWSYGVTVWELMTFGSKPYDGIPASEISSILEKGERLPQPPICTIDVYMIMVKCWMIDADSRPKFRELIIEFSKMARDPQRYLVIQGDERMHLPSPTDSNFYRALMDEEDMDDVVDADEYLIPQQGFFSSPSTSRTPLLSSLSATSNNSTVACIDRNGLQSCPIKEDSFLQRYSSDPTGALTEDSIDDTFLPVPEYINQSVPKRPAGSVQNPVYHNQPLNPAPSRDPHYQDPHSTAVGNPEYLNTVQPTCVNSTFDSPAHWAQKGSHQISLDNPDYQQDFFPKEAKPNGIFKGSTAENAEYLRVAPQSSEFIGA
Protocol for A431 cells: as §1, §2
(2) The medium of A431 cells was changed to 90 ul of DMEM FBS free medium, and incubated overnight.
(3) The test compounds were diluted according to the method in MTT assay, 10 μl of diluted compound or DMSO was added to the corresponding plate well, and incubated at 37° C. with 5% CO2 for 1 h. The final concentration of DMSO was 0.5%. 10 μl of 2 μg/L EGF was then added to each well except the cell control well, 10 μl of FBS free DMEM was added to the well, and incubated for 45 minutes; the EGF-free and compound treatment-free cells were used as cell control, and the compound treatment-free but only EGF-treated cells were used as EGF control.
(4) 100 μl cell lysate was added after aspirating the medium, sealed and placed in refrigerator at −80° C. overnight.
The assay was operated according to the instructions of R&D DYC3570E.
as §3
(7) Detection antibody was diluted according to a predetermined ratio of kit instruction by using IC dilution, and 100 μl of the diluted Detection Antibody was added to each well, and incubated at 25° C. for 1 h under shaking in darkness;
(9) reagent A and reagent B of TMB substrate (R & D DY999) were mixed at 1:1, 100 μl of substrate was added to each well, and incubated at 25° C. for 20 minutes under shaking in darkness;
(11) The OD450 values and OD570 values of the cell control, blank control and compound treatment were measured respectively by using microplate reader (Thermo Multiskan K3), and the corresponding OD570 values were subtracted from OD450 values of the same wells to get the ODEGF, ODcompound and ODcell respectively.
Protocol for NIH3T3 cells: After rinsed for one time, 1.5 ml trypsin/EDTA was added to digest the adherent cells until the cells detached, and then 3.5 ml of medium was added to terminate the trypsinization. The digested cell suspension was transferred to a 15 ml falcon tube, and spun at 1300 rpm for 3 min, the supernatant was discarded, and cells were suspended in fresh medium.
The cells were added into the incubator after addition of the test compound, and incubated for 72 h, 10 μl of 5 mg/ml MTT (Sigma, M5655) solution was added to each well of the plate, and incubated the 96-well plates at 37° C. 5% CO2 for 4 h in a incubator.
The plates were spun at 2000 rpm for 5 min.

For `CN(C)C/C=C/C(=O)Nc1cc2c(Nc3ccc(F)c(Cl)c3)ncnc2cc1O[C@H]1CCOC1` [BIBW2992, Afatinib, reference compound], the IC50 in the assay with NIH3T3 cells (Mus musculus, NIH3T3, 72 h) was 2750 nM; in the assay on H1975 cells [1] (Homo sapiens, NCI-H1975, 72 h), 88 nM.
With `C=CC(=O)Nc1cc(Nc2ncc(Cl)c(-c3cnc4c(ccn4C)c3)n2)c(OC)cc1N1CCN(C)CC1` [Compound Z-3, N-(5-(5-chloro-4-(1-methyl-1H-pyrrolo[2,3-b]pyridin-5-yl)pyrimidin-2-amino)-4-methoxy-2-(4-methylpiperazin-1-yl)phenyl)acrylamide], in the assay with NIH3T3 cells (setting [3]), the IC50 amounted to 8160 nM.
For `C=CC(=O)Nc1cc(Nc2nccc(-c3cnc4c(cnn4C)c3)n2)c(OC)cc1N1CCC(N(C)C)CC1` [Compound Z-4, N-(2-(4-(dimethylamino)piperidin-1-yl)-4-methoxy-5-(4-(1-methyl-1H-pyrazolo[3,4-b]pyridin-5-yl)pyrimidin-2-ylamino)phenyl)acrylamide], at EGFR WT kinase, the IC50 turned out to be 45 nM.
On the same count and under the same terms, next, `C=CC(=O)Nc1cc(Nc2nccc(-c3cnc4c(cnn4C)c3)n2)c(OC)cc1N1CCN(C)CC1` [Compound Z-5, N-(4-methoxy-5-(4-(1-methyl-1H-pyrazolo[3,4-b]pyridin-5-yl)pyrimidin-2-ylamino)-2-(4-methylpiperazin-1-yl)phenyl)acrylamide]: 105 nM.
With `C=CC(=O)Nc1cc(Nc2nccc(-c3cnn(C)c3)n2)c(OC)cc1N1CCC(N(C)C)CC1` [Compound Z-17, N-(2-(4-(dimethylamino)piperidin-1-yl)-4-methoxy-5-((4-(1-methyl-1H-pyrazol-4-yl)pyrimidin-2-yl)amino)phenyl)acrylamide], the IC50 in the assay on A431 cells (Homo sapiens, A-431) was 3080 nM; in the assay on H1975 cells [2] (Homo sapiens, NCI-H1975), 77 nM.
In the case of `C=CC(=O)Nc1cc(Nc2nccc(-c3cnn(C)c3)n2)c(OC)cc1N(C)CCN(C)C` [Compound Z-18, N-(2-((2-(dimethylamino)ethyl)(methyl)amino)-4-methoxy-5-((4-(1-methyl-1H-pyrazol-4-yl)pyrimidin-2-yl)amino)phenyl)acrylamide], the IC50 against EGFR WT kinase turned out to be 197 nM.
As for `C=CC(=O)Nc1cc(Nc2ncc(F)c(-c3cnc4c(ccn4C)c3)n2)c(OC)cc1N(C)CCN(C)C` [Compound Z-20, N-(2-((2-(dimethylamino)ethyl)(methyl)amino)-5-((5-fluoro-4-(1-methyl-1H-pyrrolo[2,3-b]pyridin-5-yl)pyrimidin-2-yl)amino)-4-methoxyphenyl)acrylamide], the IC50 in the assay on A431 cells (Homo sapiens, A-431) is 167 nM; in the assay with H1975 cells [2] (Homo sapiens, NCI-H1975) it was 22 nM; at EGFR WT kinase, 4 nM. The “Selective inhibitory activities of target on cellular level [IC50 (A431 cells)/IC50 (H1975 cells)]” value (“Selective inhibitory activities” for short) in the assay with H1975 cells [2] came to 7.6.
Taken in the same sequence, the figures for `C=CC(=O)Nc1cc(Nc2ncc(OC)c(-c3cnc4c(ccn4C)c3)n2)c(OC)cc1N(C)CCN(C)C` [Compound Z-21, N-(2-((2-(dimethylamino)ethyl)(methyl)amino)-4-methoxy-5-((5-methoxy-4-(1-methyl-1H-pyrrolo[2,3-b]pyridin-5-yl)pyrimidin-2-yl)amino)phenyl)acrylamide] were 113 nM, 11 nM, 9 nM and 10.3.
On to `C=CC(=O)Nc1cc(Nc2nccc(-c3cnc4c(ccn4C)c3)n2)c(OC)cc1N1CCC(N(C)C)CC1` [Compound Z-25], for which the IC50 in the assay on NIH3T3 cells (cytotoxicity, MTT, 72 h) amounted to 6910 nM; against EGFR WT kinase it was 61 nM.
For `C=CC(=O)Nc1cc(Nc2nccc(-c3cnc4c(ccn4C)c3)n2)c(OC)cc1N1CCN(C)CC1` [Compound Z-26], in that order: more than 10000 nM and 114 nM.
As to `C=CC(=O)Nc1cc(Nc2ncc(F)c(-c3cnc4c(ccn4C)c3)n2)c(OC)cc1N1CCC(N(C)C)CC1` [Compound Z-29], the IC50 against EGFR WT kinase came to 118 nM.
As to `C=CC(=O)Nc1cc(Nc2ncc(C(=O)OC)c(-c3cnc4c(ccn4C)c3)n2)c(OC)cc1N(C)CCN(C)C` [Compound Z-32], the IC50 is more than 10000 nM in the assay with NIH3T3 cells (cytotoxicity, MTT, 72 h) and 4 nM against EGFR WT kinase.
As for `C=CC(=O)Nc1cc(Nc2nccc(-c3cnc4[nH]ccc4c3)n2)c(OC)cc1N1CC(N(C)C)C1` [Compound Z-33], the IC50 in the assay with NIH3T3 cells (cytotoxicity, MTT, 72 h) was more than 10000 nM.
For `C=CC(=O)Nc1cc(Nc2ncc(F)c(-c3cnc4c(cnn4C)c3)n2)c(OC)cc1N1CCC(N(C)C)CC1` [Compound Z-37], the IC50 in the assay on A431 cells was 481 nM; with H1975 cells [2] it was 57 nM; against EGFR WT kinase it was 89 nM. Besides, in the assay with H1975 cells [2], the “Selective inhibitory activities” value amounted to 8.4.
For the molecule `C=CC(=O)Nc1cc(Nc2ncc(OC)c(-c3cnc4c(cnn4C)c3)n2)c(OC)cc1N1CCC(N(C)C)CC1` [Compound Z-38], the IC50 was more than 10000 nM with NIH3T3 cells (cytotoxicity, MTT, 72 h) and 35 nM against EGFR WT kinase.
For `C=CC(=O)Nc1cc(Nc2ncc(Cl)c(-c3cnc4c(cnn4C)c3)n2)c(OC)cc1N1CCC(N(C)C)CC1` [Compound Z-40], the IC50 stood at 2140 nM with A431 cells, 70 nM in the assay with H1975 cells [2] and 233 nM against EGFR WT kinase. Also, the “Selective inhibitory activities” value with H1975 cells [2] turned out to be 30.5.
Regarding `C=CC(=O)Nc1cc(Nc2nccc(-c3cnc4c(c3)c(Cl)cn4C)n2)c(OC)cc1N(C)CCN(C)C` [Compound Z-54], the IC50 in the assay on H1975 cells [1] (MTT, 72 h) is 3 nM; in the assay on H1975 cells [2], 4 nM.
Regarding `C=CC(=O)Nc1cc(Nc2nccc(-c3ccc4c(ccn4C)c3)n2)c(OC)cc1N(C)CCN(C)C` [Compound Z-87], the IC50 in the assay with A431 cells came to 210 nM; in the assay with H1975 cells [2], 31 nM; on EGFR WT kinase, 8 nM. For the same molecule, the “Selective inhibitory activities” value in the assay on H1975 cells [2] turned out to be 6.8.
As to `C=CC(=O)Nc1cc(Nc2ncc(Cl)c(-c3ccc4c(ccn4C)c3)n2)c(OC)cc1N(C)CCN(C)C` [Compound Z-88], the IC50 in the assay with A431 cells worked out at 449 nM; in the assay with H1975 cells [2], 18 nM; against EGFR WT kinase, 11 nM. The “Selective inhibitory activities” value in the assay on H1975 cells [2] turned out to be 24.9.
`C=CC(=O)Nc1cc(Nc2ncc(F)c(-c3cnn(C)c3)n2)c(OC)cc1N(C)CCN(C)C` [Compound Z-93, N-(2-((2-(dimethylamino)ethyl)(methyl)amino)-5-(5-fluoro-4-(1-methyl-1H-pyrazol-4-yl)pyrimidin-2-ylamino)-4-methoxyphenyl)acrylamide]: the IC50 in the assay with NIH3T3 cells (setting [3]) was more than 10000 nM.
For `C=CC(=O)Nc1cc(Nc2ncc(Cl)c(-c3cnn(C4CCNCC4)c3)n2)c(OC)cc1N1CCC(N(C)C)CC1` [Compound Z-96, N-(5-(5-chloro-4-(1-(piperidin-4-yl)-1H-pyrazol-4-yl)pyrimidin-2-ylamino)-2-(4-(dimethylamino)piperidin-1-yl)-4-methoxyphenyl)acrylamide], the IC50 was determined as 969 nM in the assay on A431 cells (Homo sapiens, A-431); 94 nM in the assay on H1975 cells [2] (Homo sapiens, NCI-H1975); 41 nM on EGFR WT kinase. Also, in the assay with H1975 cells [2], the “Selective inhibitory activities” value was determined as 10.3.
Taken in the same sequence, the figures for `C=CC(=O)Nc1cc(Nc2ncc(Cl)c(-c3cnn(C)c3C)n2)c(OC)cc1N1CCC(N(C)C)CC1` [Compound Z-97, N-(5-(5-chloro-4-(1,5-dimethyl-1H-pyrazol-4-yl)pyrimidin-2-ylamino)-2-(4-(dimethylamino)piperidin-1-yl)-4-methoxyphenyl)acrylamide] were 7500 nM, 104 nM, 341 nM and 72.1.
With `C=CC(=O)Nc1cc(Nc2ncc(Cl)c(-c3cnn(C(F)F)c3)n2)c(OC)cc1N1CCC(N(C)C)CC1` [Compound Z-101, N-(5-(5-chloro-4-(1-(difluoromethyl)-1H-pyrazol-4-yl)pyrimidin-2-ylamino)-2-(4-(dimethylamino)piperidin-1-yl)-4-methoxyphenyl)acrylamide], the IC50 with NIH3T3 cells (setting [3]) came out at 3430 nM; with H1975 cells [1] (Homo sapiens, NCI-H1975, MTT, 72 h) it was 43 nM.
With `C=CC(=O)Nc1cc(Nc2ncc(Cl)c(-c3cnc4c(ccn4C)c3)n2)c(OC)cc1N(C)CCN(CC)CC` [Compound Z-110], the IC50 in the assay with NIH3T3 cells (cytotoxicity, MTT, 72 h) was found to be 6840 nM.
The same measure, in the same setting: the same measure for `C=CC(=O)Nc1cc(Nc2ncc(Cl)c(-c3cnc4c(ccn4C)c3)n2)c(OC)cc1N(C)CCCN(C)C` [Compound Z-111]: 4010 nM.
For `C=CC(=O)Nc1cc(Nc2ncc(Cl)c(-c3cnc4c(ccn4C)c3)n2)c(OC)cc1NCCCN(C)C` [Compound Z-114], the IC50 came to 8280 nM with NIH3T3 cells (cytotoxicity, MTT, 72 h) and 116 nM against EGFR WT kinase.
Taken in the same sequence, the figures for `C=CC(=O)Nc1cc(Nc2ncc(Cl)c(-c3cnc4c(ccn4C)c3)n2)c(OC)cc1N(C)CCNC` [Compound Z-116] were more than 10000 nM and 37 nM.
In the case of `C=CC(=O)Nc1cc(Nc2ncc(F)c(-c3cnc4c(ccn4C)c3)n2)c(OC)cc1OCCN(C)C` [Compound Z-118], the IC50 in the assay with NIH3T3 cells (cytotoxicity, MTT, 72 h) came out at 3320 nM; on EGFR WT kinase, 6 nM.
For `C=CC(=O)Nc1cc(Nc2ncc(Cl)c(-c3cnc4c(c3)c(Cl)cn4C)n2)c(OC)cc1N(C)CCN(C)C` [Compound Z-121], in that order: 8530 nM and 14 nM.
At EGFR WT kinase, `C=CC(=O)Nc1cc(Nc2ncc(F)c(-c3cnc4c(c3)c(Cl)cn4C)n2)c(OC)cc1N1CCC(N(C)C)CC1` [Compound Z-122] displayed an IC50 of 25 nM.
